Measured values from US20250127784A1, “Treatment of Telangiectasia” (IMPERIAL COLLEGE INNOVATIONS LIMITED, priority 2022, published 2025).
Entries after “also recorded” stand apart in the source; their conditions may differ.

Tests used:
[1] = system: pulmonary arteriovenous malformations (PAVMs) of the HHT patient; assay: Blinded thoracic CT scan comparison of pulmonary AVMs before and after trametinib; type: in vivo, human; conditions: for effect on pulmonary AVMs (CT scans): 1 month before versus after 10 months of trametinib treatment; for size of venous sac #7: 13 mm at T−2 ys, 15 mm at T−1M
Description: Thoracic CT scan images taken for clinical purposes were compared before Trametinib (−10 years (T−10 yrs), −2 years (T−2ys), −1 month (T−1M)), and after Trametinib for 4 months (T+4M), 10 months (T+10M) and 18 months (T+18M, data not shown).
Blinded analysis of the CT scans was conducted by an expert Imperial Thoracic Radiologist to address the question of “whether the PAVMs have stayed the same, got better, or got worse?”

[2] = dose of 2 mg/day; cited from earlier work
[3] = system: HHT-associated haemorrhage (nosebleeds) and anaemia in ENG+/− HHT patient; assay: Clinical case: HHT patient treated with trametinib, nosebleeds and transfusion-dependent anaemia; conditions: for nosebleed frequency grade/category for HHT patients (Shovlin 2010, N=202): pre: highest category
[4] = system: MAP3K1 transcripts in BOECs; assay: RNASeq of blood outgrowth endothelial cells (BOECs) treated by BMP9: MAP3K1; type: cell-based, human; conditions: all BOECs (N=16), treated by BMP9 for 1 hour versus untreated
Description: FIG. 8: MAP3K1 RNASeq data in HHT and control endothelial cells from 16 cultures of blood outgrowth endothelial cells (BOECs: 4 controls, and 12 from the HHT genotypes ACVRL1^+/−, ENG^+/− and SMAD4^+/−). Data were RBM45-normalised. A Untreated BOECs (N=8). B All BOECs (N=16), untreated (unRx), and treated (Rx) by BMP9 for 1 hour. Bars: mean and standard deviation; circles: individual cultures.
To test this hypothesis, further RNASeq analysis of blood outgrowth endothelial cells (BOECs) from HHT patients was carried out. It has previously been shown that the Shovlin group established BOECs from controls and patients of all 3 HHT genotypes (ENG^+/−, ACVRL1^+/− and SMAD4^+/−); extracted RNA from replicate cultures; and developed novel methodologies to interpret primary alignment data generated by sequencing alignments to Homo sapiens human genome build 38 (GRCh38). […]
To test this hypothesis, further RNAseq analysis of blood outgrowth endothelial cells (BOECs) from HHT patients was carried out, and the relative expression levels of TGFβ/BMP9 signalling inhibitors was investigated. […] RNA had been extracted from replicate cultures; sequenced and aligned to Homo sapiens human genome build 38 (GRCh38), and unique gene reads normalised to total alignment counts per library initially further normalised using the Shovlin-group validated, lowest Gini Coefficient (GC) housekeeper gene RBM45 […]

[5] = system: MEK1/2 transcript levels in control and ENG+/− BOECs; assay: RNASeq of blood outgrowth endothelial cells (BOECs) treated by BMP9: MEK1/2; type: cell-based, human; conditions: treated by BMP9 for 1 hour versus untreated, RBM45-normalised
Description: (§1) FIG. 9: RNASeq data in HHT and control endothelial cells for MAP2K1 encoding MEK1 from 16 cultures of blood outgrowth endothelial cells (BOECs: 4 controls, and 12 from the HHT genotypes ACVRL1^+/−, ENG^+/− and SMAD4^+/−). Data were RBM45-normalised which normalises for PTC-induced stress. A All BOECs, B Control and ENG BOECs; C Control and ENG BOECs untreated (unRx) and treated (Rx) by BMP9 for 1 hour. Bars: mean and standard deviation; circles: individual cultures.
as §1, with “10:” for “9:”, “MAP2K2” for “MAP2K1”, “MEK2” for “MEK1”
RNAseq was carried out on BOECs from HHT patients and healthy controls to investigate MEK1/MEK2 transcription levels, using RBM45 normalisation to normalise for PTC-related stress.

Molecule: CC(=O)Nc1cccc(-n2c(=O)n(C3CC3)c(=O)c3c(Nc4ccc(I)cc4F)n(C)c(=O)c(C)c32)c1 [trametinib, N-(3-{3-Cyclopropyl-5-[(2-fluoro-4-iodophenyl)amino]-6,8-dimethyl-2,4,7-trioxo-3,4,6,7-tetrahydropyrido[4,3-d]pyrimidin-1(2H)-yl}phenyl)acetamide]
- effect on pulmonary AVMs (CT scans) [1]: has no effect on the patient's AVMs; also recorded: pulmonary AVMs did not improve
- effect on pulmonary AVMs (CT scans) ([1]; listed as Trametinib): No pulmonary AVMs improved; also recorded: had no effect on the PAVMs; also recorded: within the error of CT, but with a probable slight increase in size
- size of venous sac #7 ([1]; T+4M (trametinib for 4 months)): 16 mm
- size of venous sac #7 ([1]; T+10M (trametinib for 10 months)): 16.6 mm
- number of the 11 main pulmonary AVMs possibly slightly larger ([1]; scans 1 month before trametinib and 11 months later, after 10 months of treatment): 4
- elimination half-life [2]: 93.6 to 115 h
- overall effect on HHT telangiectasia, nosebleeds (haemorrhage) and anaemia ([3]; ENG+/− HHT patient, trametinib treatment): treats telangiectasia, and particularly anaemia and haemorrhage associated with telangiectasia in HHT; also recorded: clinically important improvement in nosebleeds and anaemia; also recorded: elicited an improvement in HHT-associated haemorrhage (nosebleeds) and anaemia
- maximum nose bleed frequency, two most severe categories (daily or weekly) ([3]; after 10 months of trametinib treatment): no longer fitted into either of these categories
- haemorrhage adjusted iron requirement (HAIR) grouping (Finnamore 2013, N=50) ([3]; after 10 months of trametinib, pre: 4th highest grouping): lowest grouping
- nosebleed frequency grade/category for HHT patients (Shovlin 2010, N=202) ([3]; after 10 months of trametinib): 3rd lowest frequency grade
- nosebleed frequency grade/category for HHT patients (Shovlin 2010, N=202) ([3]; after 10 months of trametinib, listed as Trametinib): third lowest category
- haemorrhage adjusted iron requirement (HAIR) quintile (Finnamore 2013, N=50) ([3]; after 10 months of trametinib, pre: highest quintile): lowest quintile
- intensity of nosebleeds ([3]; after 10 months trametinib treatment): brief trickles
- nosebleed frequency ([3]; after 10 months trametinib treatment, before: several times per week to multiple times per day): no more than once per month
- blood (red cell) transfusion requirement for anaemia ([3]; after 10 months trametinib treatment, previously every 3 weeks): transfusions were not required even at extended assessment times
- transfusion assessment interval ([3]; after 10 months trametinib treatment, previously transfusions every 3 weeks): 8 weekly
- nosebleeds (frequency and intensity), maintained frequency ([3]; at 18 and 24 months of trametinib treatment): approximately one a year
- haemorrhage adjusted iron requirement (HAIR) ([3]; at 18 and 24 months of trametinib treatment (not shown)): reduced
- side effects, adverse event grade (CTCAE version 5.0) ([3]; standard chemotherapeutic regimen, HHT patient with cancer): Grade 1

B1: BMP9: bone morphogenetic protein 9 (aka growth and differentiation factor 2, GDF2); causal ligand for HHT, used to treat BOECs for 1 hour (protein, UniProt Q9UK05 320-429, looked up)
Growth/differentiation factor …: SAGAGSHCQKTSLRVNFEDIGWDSWIIAPKEYEAYECKGGCFFPLADDVTPTKHAIVQTLVHLKFPTKVGKACCVPTKLSPISVLYKDDMGVPTLKYHYEGMSVAECGCR
- MAP3K1 transcripts (RNASeq) [4]: significantly increased
- MEK1/2 transcript levels (RNASeq) [5]: no effect
